According to the supplement of paper PMC8882468:

What was measured:
Assay in all cases: CTG-3D luminescence at 96 h relative to day-0 seeding control (ratio to day 0); higher = more growth / less cytotoxicity; PDxO 3D drug screen (set 2), 96 h, CTG-3D normalised to day-0 seeding control.
HCI-008 = system: HCI-008 (organoid from a HER2-enriched breast cancer xenograft)
HCI-017.E2 = system: HCI-017.E2 (organoid from an ER-positive breast cancer xenograft)
HCI-023 = system: HCI-023 (organoid from a triple-negative breast cancer xenograft)
HCI-024 = system: HCI-024 (organoid from a breast cancer xenograft)
HCI-025 = system: HCI-025 (organoid from a breast cancer xenograft)

CC(=O)c1c(C)c2cnc(Nc3ccc(N4CCNCC4)cn3)nc2n(C2CCCC2)c1=O [palbociclib]
CTG-3D luminescence at 96 h
Details	12.5 pM	0.00025 µM	0.005 µM	0.1 µM	1 µM	10 µM	100 µM	625 fM
HCI-008, days in culture: 325	1.14	1.96	2.03	2.74	3.58	2.05	0.962	1.8
HCI-008, days in culture: 340	0.654	3.19	1.76	2.01	2.37	–	1.18	1.13
HCI-008, days in culture: 354	1.29	1.41	2.34	1	1.11	0.979	1.21	0.693
HCI-008, days in culture: 382	1.83	1.31	1.55	1.83	1.16	1.66	0.974	1.59
HCI-017.E2, days in culture: 85	2.34	1.47	2.15	2.41	1.66	1.8	1.58	1.96
HCI-023, days in culture: 223	2.23	2.46	1.71	1.94	1.21	1.61	1.04	1.86
HCI-023, days in culture: 238	1.53	1.27	1.67	1.48	1.87	1.53	0.908	1.59
HCI-023, days in culture: 252	2.28	1.93	1.66	1.79	1.79	1.92	1.35	1.91
HCI-024, days in culture: 202	0.831	0.703	1.17	1.26	1.7	1.1	0.337	1.22
HCI-024, days in culture: 231	0.919	0.896	1.34	0.956	1.09	0.74	0.498	1.21
HCI-024, days in culture: 254	1.24	1.36	0.864	0.919	1.17	1.25	0.688	2.68
HCI-025, days in culture: 175	1.84	2.51	1.75	1.97	2.37	2.28	1.24	1.97
HCI-025, days in culture: 189	2.77	1.41	2.23	1.9	1.78	1.42	0.673	3.4
HCI-025, days in culture: 212	2.24	1.43	1.94	1.29	0.809	2.39	2.52	2.45
HCI-025, days in culture: 224	1.84	1.83	1.88	1.26	2	2.17	1.17	1.33

HCI-017.E2
Details	CTG-3D luminescence at 96 h
12.5 pM	2
0.00025 µM	2.45
0.005 µM	2.1
0.1 µM	2.37
1 µM	1.98
10 µM	2.346
100 µM	1.25
625 fM	2.23

Cc1c(CN2CCN(C(=O)[C@H](C)O)CC2)sc2c(N3CCOCC3)nc(-c3cnc(N)nc3)nc12 [apitolisib]
CTG-3D luminescence at 96 h
Details	12.5 pM	0.00025 µM	0.005 µM	0.1 µM	1 µM	10 µM	100 µM	625 fM
HCI-008, days in culture: 325	1.41	2	1.65	1.78	0.742	0.507	0.435	1.77
HCI-008, days in culture: 340	1.4	1.81	1.5	0.702	0.415	–	0.351	1.52
HCI-008, days in culture: 354	1.55	1.16	2.04	1.34	0.285	0.344	0.491	1.32
HCI-008, days in culture: 382	1.87	1.72	0.949	0.687	0.13	0.258	0.331	1.49
HCI-017.E2, days in culture: 85	2.14	1.73	1.52	1.36	0.359	0.278	0.161	2.09
HCI-023, days in culture: 223	2.19	2.65	1.81	1.85	0.861	0.971	0.469	2.04
HCI-023, days in culture: 238	1.77	1.62	1.45	1.58	1.5	0.763	0.38	1.65
HCI-023, days in culture: 252	1.95	1.92	1.7	2.06	1.62	0.654	0.459	1.97
HCI-024, days in culture: 202	1.67	1.17	1	1.17	0.494	1.03	0.293	1.42
HCI-024, days in culture: 231	1.04	1.28	1.23	1.04	0.577	0.527	0.227	1.38
HCI-024, days in culture: 254	1.36	0.995	0.856	2.4	0.795	0.608	0.25	1.94
HCI-025, days in culture: 175	1.49	1.72	1.53	1.89	0.73	0.467	0.419	1.16
HCI-025, days in culture: 189	1.77	1.49	1.66	1.41	0.518	0.179	0.121	2.67
HCI-025, days in culture: 212	2.2	3.51	2.34	0.777	0.534	0.218	0.139	0.788
HCI-025, days in culture: 224	2.45	2.02	2.09	1.35	0.679	0.351	0.267	2

HCI-017.E2
Details	CTG-3D luminescence at 96 h
12.5 pM	2.28
0.00025 µM	2.54
0.005 µM	2.21
0.1 µM	1.43
1 µM	0.397
10 µM	0.399
100 µM	0.223
625 fM	2.43

C[C@@H](Nc1cc(F)cc(F)c1)c1cc(C(=O)N(C)C)cc2c(=O)cc(N3CCOCC3)oc12 [AZD-8186]
CTG-3D luminescence at 96 h
Details	12.5 pM	0.00025 µM	0.005 µM	0.1 µM	1 µM	10 µM	100 µM	625 fM
HCI-008, days in culture: 325	1.16	2.3	1.7	3.47	3.65	1.03	0.315	1.35
HCI-008, days in culture: 340	1.72	2.42	1.8	1.21	1.62	–	0.345	1.48
HCI-008, days in culture: 354	1.26	1.28	1.82	1.24	1.26	0.634	0.353	1.32
HCI-008, days in culture: 382	1.77	1.86	1.54	1.44	1.16	0.995	0.193	1.86
HCI-017.E2, days in culture: 85	1.85	1.86	1.62	2.05	1.45	1.14	0.197	2.07
HCI-023, days in culture: 223	1.94	2.6	1.75	1.98	1.44	1.93	1.14	1.74
HCI-023, days in culture: 238	1.54	1.51	1.31	1.41	1.7	1.3	1.05	1.54
HCI-023, days in culture: 252	2.12	1.88	1.63	1.81	1.91	2.09	1.5	1.99
HCI-024, days in culture: 202	1.88	0.916	0.693	1.33	0.84	1.61	0.461	1.39
HCI-024, days in culture: 231	1.33	1.25	1.21	1.01	1.32	0.93	0.399	1.35
HCI-024, days in culture: 254	1.17	1.68	1.81	2.04	0.901	1.55	0.743	1.01
HCI-025, days in culture: 175	1.63	2.47	1.8	1.98	2.4	3.48	1.34	1.51
HCI-025, days in culture: 189	2.22	1.46	1.89	1.5	1.81	1.88	0.528	3.16
HCI-025, days in culture: 212	1.07	3.57	2.79	1.25	0.857	1.27	1.2	1.56
HCI-025, days in culture: 224	1.99	2.38	1.66	2	2.68	1.8	1.09	2.03

HCI-017.E2
Details	CTG-3D luminescence at 96 h
12.5 pM	2.08
0.00025 µM	2.64
0.005 µM	2.27
0.1 µM	2.48
1 µM	1.89
10 µM	1.096
100 µM	0.252
625 fM	2.74
